pEC50: −log10 of the molar value.
Molecular target: T1, Human M4 (Homo sapiens, UniProt P08173)
T1 construct: expressed in transfected cells
T1 sequence (P08173 1-479): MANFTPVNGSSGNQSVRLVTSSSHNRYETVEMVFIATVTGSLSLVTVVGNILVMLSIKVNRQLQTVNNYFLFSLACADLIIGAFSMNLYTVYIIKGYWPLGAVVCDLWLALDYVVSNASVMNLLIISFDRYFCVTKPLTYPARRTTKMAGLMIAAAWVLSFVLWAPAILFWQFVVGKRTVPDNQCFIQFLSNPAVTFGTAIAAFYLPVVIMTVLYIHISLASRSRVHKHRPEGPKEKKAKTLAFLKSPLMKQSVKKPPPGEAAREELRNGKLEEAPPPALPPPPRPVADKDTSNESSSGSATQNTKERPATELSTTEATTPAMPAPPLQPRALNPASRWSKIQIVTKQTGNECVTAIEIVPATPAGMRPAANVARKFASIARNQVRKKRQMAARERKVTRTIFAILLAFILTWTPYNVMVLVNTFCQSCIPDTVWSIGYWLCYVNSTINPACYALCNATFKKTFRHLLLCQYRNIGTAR
Assay: mAChR M4 cell-based functional assay (calcium flux, potentiation of EC20 acetylcholine response), hM4-Gqi5 CHO-K1 cells
Details: for Emax at 30 µM: CHO-K1, % ACh maximum at 30 μM, human M4, read-out: Emax; for pEC50: hM4-Gqi5 CHO-K1 cells, calcium flux, PAM of EC20 acetylcholine, read-out: Human M4 EC50
Experimental: Human and rat M4 cDNAs, along with the chimeric G protein Gqi5, were transfected into Chinese hamster ovary (CHO-K1) cells purchased from the American Type Culture Collection using Lipofectamine2000. hM4-Gqi5 cells were grown in Ham's F-12 medium containing 10% heat-inactivated fetal bovine serum (FBS), 20 mM HEPES, 50 μg/mL G418 sulfate, and 500 μg/mL Hygromycin B. rM4-Gqi5 cells were grown in DMEM containing 10% heat-inactivated FBS, 20 mM HEPES, 400 μg/mL G418 sulfate, and 500 μg/mL Hygromycin B.
For high throughput measurement of agonist-evoked increases in intracellular calcium, CHO-K1 cells stably expressing muscarinic receptors were plated in growth medium lacking G418 and hygromycin at 15,000 cells/20 μL/well in Greiner 384-well black-walled, tissue culture (TC)-treated, clear-bottom plates (VWR). Cells were incubated overnight at 37° C. and 5% CO2. The next day, cells were washed using an ELX 405 (BioTek) with assay buffer; the final volume was then aspirated to 20 μL. Next, 20 μL of a 2.3 μM stock of Fluo-4/acetoxymethyl ester (Invitrogen, Carlsbad, CA), prepared as a 2.3 mM stock in DMSO and mixed in a 1:1 ratio with 10% (w/v) Pluronic F-127 and diluted in assay buffer, was added to the wells and the cell plates were incubated for 50 min at 37° C. and 5% CO2. Dye was removed by washing with the ELX 405 and the final volume was aspirated to 20 μL. Compound master plates were formatted in an 11 point concentration-response curve (CRC) format (1:3 dilutions) in 100% DMSO with a starting concentration of 10 mM using a BRAVO liquid handler (Agilent). Test compound CRCs were then transferred to daughter plates (240 nL) using the Echo acoustic plate reformatter (Labcyte, Sunnyvale, CA) and then diluted into assay buffer (40 μL) to a 2× stock using a Thermo Fisher Combi (Thermo Fisher Scientific, Waltham, MA).
Calcium flux was measured using the Functional Drug Screening System (FDSS) 6000 or 7000 (Hamamatsu Corporation, Tokyo, Japan) as an increase in the fluorescent static ratio. Compounds were applied to cells (20 μL, 2×) using the automated system of the FDSS at 2-4 seconds into the protocol and the data were collected at 1 Hz. At 144 seconds, 10 μL of an EC20 concentration of the muscarinic receptor agonist acetylcholine was added (5×), followed by the addition of 12 μL of an EC80 concentration of acetylcholine at the 230 second time point (5×). Agonist activity was analyzed as a concentration-dependent increase in calcium mobilization upon compound addition. Positive allosteric modulator activity was analyzed as a concentration-dependent increase in the EC20 acetylcholine response. Antagonist activity was analyzed as a concentration-dependent decrease in the EC80 acetylcholine response. Concentration-response curves were generated using a four-parameter logistical equation in XLFit curve fitting software (IDBS, Bridgewater, NJ) for Excel (Microsoft, Redmond, WA) or Prism (GraphPad Software, Inc., San Diego, CA).
Compounds were synthesized as described above. Activity (EC50 and Emax) was determined in the mAChR M4 cell-based functional assay as described above and the data are shown in Tables 2-4. The compound number corresponds to the compound numbers used in Table 1.

Structure (SMILES)	Emax at 30 µM	pEC50
Cc1c(N2CCc3ncc(-c4ccc(C(F)(F)F)nc4)cc3C2)nn2cnnc2c1C [Compound 36, 6-(7,8-dimethyl-[1,2,4]triazolo[4,3-b]pyridazin-6-yl)-3-[6-(trifluoromethyl)-3-pyridyl]-7,8-dihydro-5H-1,6-naphthyridine]	85%	6.53
Cc1ncc(-c2cnc3c(c2)CN(c2nn4cnnc4c(C)c2C)CC3)cn1 [Compound 37, 6-(7,8-dimethyl-[1,2,4]triazolo[4,3-b]pyridazin-6-yl)-3-(2-methylpyrimidin-5-yl)-7,8-dihydro-5H-1,6-naphthyridine]	59%	5.64
Cc1c(N2CCc3ncc(-c4ccc(C5CC5)nc4)cc3C2)nn2cnnc2c1C [Compound 38, 3-(6-cyclopropyl-3-pyridyl)-6-(7,8-dimethyl-[1,2,4]triazolo[4,3-b]pyridazin-6-yl)-7,8-dihydro-5H-1,6-naphthyridine]	90%	6.83
Cc1ccc(-c2cnc3c(c2)CN(c2nn4cnnc4c(C)c2C)CC3)cn1 [Compound 39, 6-(7,8-dimethyl-[1,2,4]triazolo[4,3-b]pyridazin-6-yl)-3-(6-methyl-3-pyridyl)-7,8-dihydro-5H-1,6-naphthyridine]	95%	6.94
Cc1c(N2CCc3ncc(-c4cncc(C#N)c4)cc3C2)nn2cnnc2c1C [Compound 40, 5-[6-(7,8-dimethyl-[1,2,4]triazolo[4,3-b]pyridazin-6-yl)-7,8-dihydro-5H-1,6-naphthyridin-3-yl]pyridine-3-carbonitrile]	69%	6.15
COc1ccncc1-c1cnc2c(c1)CN(c1nn3cnnc3c(C)c1C)CC2 [Compound 41, 6-(7,8-dimethyl-[1,2,4]triazolo[4,3-b]pyridazin-6-yl)-3-(4-methoxy-3-pyridyl)-7,8-dihydro-5H-1,6-naphthyridine]	81%	6.35
Cc1c(N2CCc3ncc(-c4ccc(F)nc4)cc3C2)nn2cnnc2c1C [Compound 42, 6-(7,8-dimethyl-[1,2,4]triazolo[4,3-b]pyridazin-6-yl)-3-(6-fluoro-3-pyridyl)-7,8-dihydro-5H-1,6-naphthyridine]	94%	6.66
COc1ccc(-c2cnc3c(c2)CN(c2nn4cnnc4c(C)c2C)CC3)cn1 [Compound 43, 6-(7,8-dimethyl-[1,2,4]triazolo[4,3-b]pyridazin-6-yl)-3-(6-methoxy-3-pyridyl)-7,8-dihydro-5H-1,6-naphthyridine]	94%	6.74
Cc1c(N2CCc3ncc(-c4cccnc4)cc3C2)nn2cnnc2c1C [Compound 44, 6-(7,8-dimethyl-[1,2,4]triazolo[4,3-b]pyridazin-6-yl)-3-(3-pyridyl)-7,8-dihydro-5H-1,6-naphthyridine]	92%	6.83
Cc1c(N2CCc3ncc(Nc4cc(Cl)c(F)cc4F)cc3C2)nn2cnnc2c1C [Compound 45, N-(5-chloro-2,4-difluoro-phenyl)-6-(7,8-dimethyl-[1,2,4]triazolo[4,3-b]pyridazin-6-yl)-7,8-dihydro-5H-1,6-naphthyridin-3-amine]	71%	6.57
Cc1c(N2CCc3ncc(Nc4c(F)cccc4C#N)cc3C2)nn2cnnc2c1C [Compound 46, 2-[[6-(7,8-dimethyl-[1,2,4]triazolo[4,3-b]pyridazin-6-yl)-7,8-dihydro-5H-1,6-naphthyridin-3-yl]amino]-3-fluoro-benzonitrile]	64%	6.21
Cc1c(N2CCc3ncc(Nc4c(F)cccc4F)cc3C2)nn2cnnc2c1C [Compound 47, N-(2,6-difluorophenyl)-6-(7,8-dimethyl-[1,2,4]triazolo[4,3-b]pyridazin-6-yl)-7,8-dihydro-5H-1,6-naphthyridin-3-amine]	80%	7.04
Cc1ccc(Nc2cnc3c(c2)CN(c2nn4cnnc4c(C)c2C)CC3)c(F)c1 [Compound 48, 6-(7,8-dimethyl-[1,2,4]triazolo[4,3-b]pyridazin-6-yl)-N-(2-fluoro-4-methyl-phenyl)-7,8-dihydro-5H-1,6-naphthyridin-3-amine]	80%	6.83
Cc1c(N2CCc3ncc(Nc4cccc(F)c4F)cc3C2)nn2cnnc2c1C [Compound 49, N-(2,3-difluorophenyl)-6-(7,8-dimethyl-[1,2,4]triazolo[4,3-b]pyridazin-6-yl)-7,8-dihydro-5H-1,6-naphthyridin-3-amine]	82%	7.08
Cc1c(N2CCc3ncc(Nc4ccccc4Cl)cc3C2)nn2cnnc2c1C [Compound 50, N-(2-chlorophenyl)-6-(7,8-dimethyl-[1,2,4]triazolo[4,3-b]pyridazin-6-yl)-7,8-dihydro-5H-1,6-naphthyridin-3-amine]	85%	6.68
Cc1c(N2CCc3ncc(Nc4ccccc4N(C)C)cc3C2)nn2cnnc2c1C [Compound 51, N1-[6-(7,8-dimethyl-[1,2,4]triazolo[4,3-b]pyridazin-6-yl)-7,8-dihydro-5H-1,6-naphthyridin-3-yl]-N2,N2-dimethyl-benzene-1,2-diamine]	67%	6.40
Cc1c(N2CCc3ncc(Nc4ccccc4C#N)cc3C2)nn2cnnc2c1C [Compound 52, 2-[[6-(7,8-dimethyl-[1,2,4]triazolo[4,3-b]pyridazin-6-yl)-7,8-dihydro-5H-1,6-naphthyridin-3-yl]amino]benzonitrile]	76%	6.42
Cc1ccccc1Nc1cnc2c(c1)CN(c1nn3cnnc3c(C)c1C)CC2 [Compound 53, 6-(7,8-dimethyl-[1,2,4]triazolo[4,3-b]pyridazin-6-yl)-N-(o-tolyl)-7,8-dihydro-5H-1,6-naphthyridin-3-amine]	91%	7.06
COc1ccccc1Nc1cnc2c(c1)CN(c1nn3cnnc3c(C)c1C)CC2 [Compound 54, 6-(7,8-dimethyl-[1,2,4]triazolo[4,3-b]pyridazin-6-yl)-N-(2-methoxyphenyl)-7,8-dihydro-5H-1,6-naphthyridin-3-amine]	90%	6.82
CSc1ccccc1Nc1cnc2c(c1)CN(c1nn3cnnc3c(C)c1C)CC2 [Compound 55, 6-(7,8-dimethyl-[1,2,4]triazolo[4,3-b]pyridazin-6-yl)-N-(2-methylsulfanylphenyl)-7,8-dihydro-5H-1,6-naphthyridin-3-amine]	85%	6.62
Cc1c(N2CCc3ncc(C(=O)N4CCCC4)cc3C2)nn2cnnc2c1C [Compound 56, [6-(7,8-dimethyl-[1,2,4]triazolo[4,3-b]pyridazin-6-yl)-7,8-dihydro-5H-1,6-naphthyridin-3-yl]-pyrrolidin-1-yl-methanone]	91%	–
Cc1c(N2CCc3ncc(C(=O)NC4CC4)cc3C2)nn2cnnc2c1C [Compound 57, N-cyclopropyl-6-(7,8-dimethyl-[1,2,4]triazolo[4,3-b]pyridazin-6-yl)-7,8-dihydro-5H-1,6-naphthyridine-3-carboxamide]	60%	5.11
